# Reference: US10578612B2, “Diagnostic assay” (priority 2010, dated 2020)
# Values joined by “and” are separate entries in the source; they are usually repeats but may differ in a detail not shown here. Equal entries are not always repeated. Bridge positions count the residues as written; N and C are the ends. Square brackets hold non-standard residues; d marks the D form. Peptide text beside a SMILES is read from it. * marks the point of attachment. Octanoyl(6-Me) = CCC(C)CCCCC(=O)*; Dab = NCC[CH](N)C(=O)O
# Experiments:
# Type in all cases: cell-based, human
# [1] = test system: IFN-γ production in blood (CMV antigen); assay: Effect of polymyxin B on IFN-γ production in blood in QuantiFERON-CMV tubes (Example 2)
# Procedure: The effect of polymyxin B on IFN-γ production was assessed. Blood from 8 healthy donors was added to QuantiFERON-CMV blood collection tubes (1.0 mL per tube). One tube for each donor had 1.0 μg/mL of polymyxin B added, whilst the second tube served as a control. Blood was incubated at 37° C. for 20 hours before the tubes were centrifuged and the resultant concentration of IFN-γ determined by ELISA.
# [2] = test system: non-specific IFN-γ production in blood containing lipopolysaccharides (LPS); assay: Effect of polymyxin B on non-specific IFN-γ production in blood containing LPS (Example 3)
# Procedure: In this Example, blood from 8 healthy donors was collected in Li-Heparin tubes. Aliquots of 1.0 mL were prepared in 13/75 mm plain gel tubes. An endotoxin, lipopolysaccharides (LPS), was added to each tube of blood at a concentration of 1 μg/mL. Various concentrations of polymyxin B were added to each of the tubes. The blood was then incubated at 37° C. for 20 hours before the tubes were centrifuged and the IFN-γ concentration of the plasma determined by ELISA.
# [3] = test system: non-specific IFN-γ production in blood from BD heparin tube (endotoxin contamination); assay: Polymyxin B in endotoxin-contaminated BD heparin tubes, IFN-γ assay (Example 4)
# Procedure: Blood was taken from four healthy donors collected in Li-Heparin tubes. […] Tubes were mixed to resolublize the heparin and to ensure blood contact with tube plastic.
# Aliquots of 1.0 mL from each heparin tube type were then transferred to 13/75 mm plain gel tubes. The blood was then incubated at 37° C. for 20 hours before the tubes were centrifuged and the IFN-γ concentration of the plasma determined by ELISA.
# [4] = test system: immune response to lipopolysaccharide (LPS), IFN-γ in blood; assay: Effect of sushi peptide on immune response of blood to LPS (Example 6, FIGS. 1-2); conditions: sushi peptide 0-10 μg/ml, antigens CMV and tetanus toxoid, FIGS. 2a-2c
# Procedure: Heparinized blood samples were collected into Li-Hep Vacuette (registered trade mark) tubes (Greiner Bio-one, Germany).
# Aliquots of 1 ml of the blood samples were incubated with various concentrations of Lipopolysaccharide (Sigma, Australia) and a sushi peptide ([…]) [SEQ ID NO:1] (American Peptide Company, California) in nil blood collection tubes (QuantiFERON [registered trade mark]-TB Gold In-Tube, Cellestis Ltd, Australia) either as supplied or spiked with tetanus toxoid (1001 fu/ml), or in CMV tubes (QuantiFERON-CMV, Cellestis Ltd, Australia).
# Stimulated blood samples were incubated for 16-24 hr at 37° C., after which the tubes were centrifuged and the plasma harvested. The amount of IFN-γ present in each plasma sample was then quantified using the QuantiFERON (registered trade mark)-TB Gold ELISA (Cellestis Limited, Australia) as per the manufacturer's instructions.
# ELISA optical density values for IFN-γ standards run on each ELISA plate were used to construct a standard curve from which the amount of IFN-γ present in each of the test plasma samples was converted to IU/mL values.
# [5] = test system: IFN-γ production in stimulated whole blood
compound,measurement,setting,value
"CCC(C)CCCCC(=O)NC(CCN)C(=O)NC(C(=O)NC(CCN)C(=O)NC1CCNC(=O)C(C(C)O)NC(=O)C(CCN)NC(=O)C(CCN)NC(=O)C(CC(C)C)NC(=O)C(Cc2ccccc2)NC(=O)C(CCN)NC1=O)C(C)O (stereo not drawn) [polymyxin B, N-[4-amino-1-[[1-[[4-amino-1-oxo-1-[[6,9,18-tris(2-aminoethyl)-15-benzyl-3-(1-hydroxyethyl)-12-(2-methylpropyl)-2,5,8,11,14,17,20-heptaoxo-1,4,7,10,13,16,19-heptazacyclotricos-21-yl]amino]butan-2-yl]amino]-3-hydroxy-1-oxobutan-2-yl]amino]-1-oxobutan-2-yl]-6-methyloctanamide] ({Octanoyl(6-Me)}-[Dab]T[Dab][Dab][Dab]FL[Dab][Dab]T; lactam 4-C; configuration not given here)",effect on the production of IFN-γ,"[1]; 1 μg/mL polymyxin B, CMV antigen",does not adversely affect the production of IFN-γ
same,"IFN-γ concentration, CMV + PMB 1.0 μg/mL","[1]; QuantiFERON-CMV tube, 1.0 μg/mL polymyxin B, 37° C. 20 hours, ELISA, one line per subject",8.35 IU/mL and 0.04 IU/mL (2×) and 0.08 IU/mL and 0.51 IU/mL and 1.53 IU/mL and 24.28 IU/mL and 0.05 IU/mL and 2.3 IU/mL and 0.55 IU/mL
same,"IFN-γ concentration, 1 μg/mL LPS, polymyxin 0.1 ug/mL","[2]; blood + 1 μg/mL LPS, polymyxin B 0.1 ug/mL, 37° C. 20 hours, one line per subject",0.67 IU/mL and 0.44 IU/mL and 9.28 IU/mL and 2.87 IU/mL and 0.32 IU/mL and 2.00 IU/mL and 0.79 IU/mL and 0.41 IU/mL
same,"IFN-γ concentration, 1 μg/mL LPS, polymyxin 1 ug/mL","[2]; blood + 1 μg/mL LPS, polymyxin B 1 ug/mL, 37° C. 20 hours, one line per subject",0.41 IU/mL and 0.22 IU/mL and 3.31 IU/mL and 2.57 IU/mL and 0.21 IU/mL and 1.17 IU/mL and 0.50 IU/mL and 0.14 IU/mL
same,"IFN-γ concentration, 1 μg/mL LPS, polymyxin 10 ug/mL","[2]; blood + 1 μg/mL LPS, polymyxin B 10 ug/mL, 37° C. 20 hours, one line per subject",0.25 IU/mL and 0.11 IU/mL (2×) and 1.96 IU/mL and 1.41 IU/mL and 0.36 IU/mL and 0.32 IU/mL and 0.12 IU/mL
same,"IFN-γ concentration, 1 μg/mL LPS, polymyxin 100 ug/mL","[2]; blood + 1 μg/mL LPS, polymyxin B 100 ug/mL, 37° C. 20 hours, one line per subject",0.02 IU/mL (3×) and 0.05 IU/mL (2×) and 0.04 IU/mL and 0.18 IU/mL and 0.06 IU/mL
same,effect on non-specific IFN-γ production,[2]; samples containing endotoxin (LPS 1 μg/mL),caused a reduction in non-specific IFN-γ production
same,effect on non-specific IFN-γ production in BD heparin tubes,"[3]; 100 ug/mL polymyxin B, BD heparin tubes known to contain endotoxin",significantly reduced
same,"IFN-gamma, BD Heparin Tube + 100 μg/mL Polymyxin B","[3]; blood from BD heparin tube (endotoxin contaminated) with 100 μg/mL polymyxin B, 37° C. 20 hours, one line per subject",0.51 IU/mL and 0.11 IU/mL (2×) and 0.24 IU/mL
HAEHKVKIGVEQKYGQFPQGTEVTYTCSGNYFLM (Sushi peptide),effect on immune response to LPS,[4],inhibition of an immune response to lipopolysaccharide (LPS)
polyinosinic acid-polycytidylic acid [PolyI:C],IFN-γ response to poly(I:C) alone,[5],relatively small
same,effect on IFN-γ production with antigen,[5],increases the IFN-γ production
